Like-named read-outs stand apart in the source and are kept apart here.
Assays:
[1] = system: absorption of sodium from the intestinal lumen; experiment: Inhibition of intestinal sodium absorption in mice; format: in vivo; details: CD-1 mice, 15 mg/kg oral gavage twice daily; for Fecal fluid content (Δ from vehicle): day 3, change from vehicle group mean; for response vs control in vivo at 15 mg/kg: Mus musculus, 72 h, day 3, normalized to dietary sodium intake
In short: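 Male ~8-week CD-1 mice on chow with added 0.4% inorganic phosphorous, in metabolic cages after 3-day acclimation and 24-hr baseline collection. Urine sodium by ion chromatography, dried fecal sodium by MP-AES; day-3 24-hour excretion normalized to dietary sodium intake and expressed as % of vehicle mean; diarrhea and fecal fluid also recorded.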

[2] = system: human duodenum monolayer culture; experiment: Increased trans-epithelial resistance (TEER) in human organoid monolayer cell cultures; format: cell-based; details: 1 μM apical, baseline corrected
Protocol: Basal media (B consisted of advanced DMEM/F12 containing 10 mM HEPES (Invitrogen, 15630-080), 1:100 Glutamax (Invitrogen, 35050-061), and 1:100 penicillin/streptomycin (Invitrogen, 15140-122). Supplemented basal media (SBM) contained 1:100 N2 (Invitrogen, 17502-048), 1:50 B27 (Invitrogen, 12587-010), 1 mM N-acetylcysteine (Sigma, A9165), and 10 nM [Leu15]-gastrin I (Sigma, G9145). Growth factors used included 50 ng per mL mouse EGF (Peprotech, 315-09), 100 ng per mL mouse noggin (Peprotech, 250-38), 500 ng per mL human R-spondin 1 (R&D, 4645-RS), 100 ng per mL mouse Wnt-3a (R&D, 1324-WN), 20 μM Y-27632 (Tocris, 1254), 10 mM nicotinamide (Sigma, N0636), 500 nM A83-01 (Tocris, 2939), 10 μM SB202190 (Tocris, 1264). Transwells were 0.4 μm pore polyester membrane 24-well Transwell inserts (Corning). Cultures were incubated at 37° C. in 5% CO2.
Human duodenum organoids were cultured in WENRNAS (Wnt, EGF, noggin, R-spondin1, Nicotinamide, A83-01, SB202190) and typically grown for 7-12 days before being used to plate monolayer cultures. On day 0, organoid cultures embedded in Matrigel were treated with TrypLE Express to break organoids into small pieces and/or single cells. The cells were resuspended to 0.5×10^6 cells/mL in SBM containing WENRAY (Wnt, EGF, noggin, R-spondin1, A83-01, Y-27632). Following this step, 200 μL of cell suspension was plated into the apical side of a 24-well Transwell (100,000 cells/well) and 600 μL of SBM with WENRAY was added to the basolateral side. Duodenum cells were differentiated with ENA (EGF, noggin, A83-01) on day 3. The color of apical compartment turns from pink or orange to yellow due to the increase in NHE3 expression after differentiation.
Each human duodenum monolayer culture well was washed twice with fresh SBM on the apical side on day 6 or day 7 before dosing. All compound stocks were 10 mM dissolved DMSO. Each compound stock was individually mixed with fresh SBM to reach final compound concentration 1 μM and dosed only on the apical side of the monolayer (total volume 200 μl). DMSO at the equivalent concentration was used as the vehicle control. Duplicate wells were dosed for each compound. Transepithelial electrical resistance (TEER) was used as a quantitative technique to measure of tight junction permeability. TEER values were recorded (MERS00002, Millipore) before dosing and 30 mins and 1 hr after dosing for all wells. Each of the duplicate TEER values following treatment were corrected for the individual well baseline TEER. Baseline corrected TEER for each example compound was compared to the average of the DMSO wells and expressed as a percent TEER of vehicle control.

[3] = read-out: Fecal Na Excretion (% of vehicle)
[4] = read-out: Urinary Na Excretion (% of vehicle)
[5] = 1 hr after dosing, read-out: TEER at 60 minutes (% of Vehicle)
[6] = 0.5 h, 30 mins after dosing, read-out: TEER at 30 minutes (% of Vehicle)

SMILES	Fecal fluid content (Δ from vehicle) [1]	response vs control in vivo at 15 mg/kg [1, 3]	response vs control in vivo at 15 mg/kg [1, 4]	activity at 1 µM [2, 5]	activity at 1 µM [2, 6]
Cc1cc(S(=O)(=O)NCCOCCOCCNC(=O)NCCCCNC(=O)NCCOCCOCCNS(=O)(=O)c2ccc(O[C@H]3c4cc(Cl)cc(C)c4C[C@@H]3N(C)C)c(C)c2)ccc1O[C@H]1c2cc(Cl)cc(C)c2C[C@@H]1N(C)C [Example 17, 3-[2-(2-[2-[(4-[[(1S,2S)-6-Chloro-2-(dimethylamino)-4-methyl-2,3-dihydro-1H-inden-1-yl]oxy]-3-methylbenzene)sulfonamido]ethoxy]ethoxy)ethyl]-1-[4-([[2-(2-[2-[(4-[[(1S,2S)-6-chloro-2-(dimethylamino)-4-methyl-2,3-dihydro-1H-inden-1-yl]oxy]-3-methylbenzene)sulfonamido]ethoxy]ethoxy)ethyl]carbamoyl]amino)butyl]urea]	B (5-10)	150 to 200%	50 to 70%	100 to 130%	100 to 130%
Cc1cc(Cl)cc2c1C[C@H](N(C)C)[C@H]2Oc1ccc(S(=O)(=O)NCCOCCOCCNC(=O)NCCCCNC(=O)NCCOCCOCCNS(=O)(=O)c2ccc(O[C@H]3c4cc(Cl)cc(C)c4C[C@@H]3N(C)C)c(F)c2)cc1F [Example 24, 3-[2-(2-[2-[(4-[[(1S,2S)-6-Chloro-2-(dimethylamino)-4-methyl-2,3-dihydro-1H-inden-1-yl]oxy]-3-fluorobenzene)sulfonamido]ethoxy]ethoxy)ethyl]-1-[4-([[2-(2-[2-[(4-[[(1S,2S)-6-chloro-2-(dimethylamino)-4-methyl-2,3-dihydro-1H-inden-1-yl]oxy]-3-fluorobenzene)sulfonamido]ethoxy]ethoxy)ethyl]carbamoyl]amino)butyl]urea]	A (<5)	> 200%	50 to 70%	100 to 130%	100 to 130%
Cc1cc(S(=O)(=O)N[C@H]2CCN(CCOCCNC(=O)NCCCCNC(=O)NCCOCCN3CC[C@H](NS(=O)(=O)c4ccc(O[C@H]5c6cc(Cl)cc(Cl)c6C[C@@H]5N(C)C)c(C)c4)C3=O)C2=O)ccc1O[C@H]1c2cc(Cl)cc(Cl)c2C[C@@H]1N(C)C [Example 91, 1-(2-[2-[(3S)-3-[(4-[[(1S,2S)-4,6-Dichloro-2-(dimethylamino)-2,3-dihydro-1H-inden-1-yl]oxy]-3-methylbenzene)sulfonamido]-2-oxopyrrolidin-1-yl]ethoxy]ethyl)-3-(4-[[(2-[2-[(3S)-3-[(4-[[(1S,2S)-4,6-dichloro-2-(dimethylamino)-2,3-dihydro-1H-inden-1-yl]oxy]-3-methylbenzene)sulfonamido]-2-oxopyrrolidin-1-yl]ethoxy]ethyl)carbamoyl]amino]butyl)urea]	–	–	–	100 to 130%	100 to 130%
O=C(NCCCCNC(=O)NCCOCCN1CC[C@@H](NS(=O)(=O)c2ccc(O[C@H]3c4cc(Cl)cc(Cl)c4C[C@@H]3N3CCNCC3)c(F)c2)C1)NCCOCCN1CC[C@@H](NS(=O)(=O)c2ccc(O[C@H]3c4cc(Cl)cc(Cl)c4C[C@@H]3N3CCNCC3)c(F)c2)C1 [Example 105, 4-([(1S,2S)-4,6-Dichloro-2-(piperazin-1-yl)-2,3-dihydro-1H-inden-1-yl]oxy)-N—[(R)-1-(20-[(R)-3-([4-([(1S2S)-4,6-dichloro-2-(piperazin-1-yl)-2,3-dihydro-1H-inden-1-yl]oxy)-3-fluorophenyl]sulfonamido)pyrrolidin-1-yl]-7,14-dioxo-3,18-dioxa-6,8,13,15-tetraazaicosyl)pyrrolidin-3-yl]-3-fluorobenzenesulfonamide; tetra(trifluoroacetate)]	–	–	–	> 130%	> 130%
O=C(NCCCCNC(=O)NCCOCCN1CC[C@H](NS(=O)(=O)c2ccc(O[C@H]3c4cc(Cl)cc(Cl)c4C[C@@H]3N3CCNCC3)c(F)c2)C1)NCCOCCN1CC[C@H](NS(=O)(=O)c2ccc(O[C@H]3c4cc(Cl)cc(Cl)c4C[C@@H]3N3CCNCC3)c(F)c2)C1 [Example 106, 4-([(1S,2S)-4,6-Dichloro-2-(piperazin-1-yl)-2,3-dihydro-1H-inden-1-yl]oxy)-N—[(S)-1-(20-[(S)-3-([4-([(1S,2S)-4,6-dichloro-2-(piperazin-1-yl)-2,3-dihydro-1H-inden-1-yl]oxy)-3-fluorophenyl]sulfonamido)pyrrolidin-1-yl]-7,14-dioxo-3,18-dioxa-6,8,13,15-tetraazaicosyl)pyrrolidin-3-yl]-3-fluorobenzenesulfonamide; tetra(trifluoroacetate)]	–	–	–	> 130%	> 130%
N#Cc1cc(Cl)cc2c1C[C@H](N1CCNCC1)[C@H]2Oc1ccc(S(=O)(=O)N[C@H]2CCN(CCOCCNC(=O)NCCCCNC(=O)NCCOCCN3CC[C@H](NS(=O)(=O)c4ccc(O[C@H]5c6cc(Cl)cc(C#N)c6C[C@@H]5N5CCNCC5)cc4)C3)C2)cc1 [Example 107, 4-([(1S,2S)-6-Chloro-4-cyano-2-(piperazin-1-yl)-2,3-dihydro-1H-inden-1-yl]oxy)-N—[(S)-1-(20-[(S)-3-([4-([(1S,2S)-6-chloro-4-cyano-2-(piperazin-1-yl)-2,3-dihydro-1H-inden-1-yl]oxy)phenyl]sulfonamido)pyrrolidin-1-yl]-7,14-dioxo-3,18-dioxa-6,8,13,15-tetraazaicosyl)pyrrolidin-3-yl]benzenesulfonamide; tetra(trifluoroacetate)]	–	–	–	100 to 130%	> 130%
N#Cc1cc(Cl)cc2c1C[C@H](N1CCNCC1)[C@H]2Oc1ccc(S(=O)(=O)N[C@H]2CCN(CCOCCNC(=O)NCCCCNC(=O)NCCOCCN3CC[C@H](NS(=O)(=O)c4ccc(O[C@H]5c6cc(Cl)cc(C#N)c6C[C@@H]5N5CCNCC5)c(F)c4)C3)C2)cc1F [Example 110, 4-([(1S,2S)-6-Chloro-4-cyano-2-(piperazin-1-yl)-2,3-dihydro-1H-inden-1-yl]oxy)-N—[(S)-1-(20-[(S)-3-[(4-([(1S,2S)-6-chloro-4-cyano-2-(piperazin-1-yl)-2,3-dihydro-1H-inden-1-yl]oxy)-3-fluorophenyl)sulfonamide)pyrrolidin-1-yl]-7,14-dioxo-3,18-dioxa-6,8,13,15-tetraazaicosyl)pyrrolidin-3-yl]-3-fluorobenzenesulfonamide; tetra(trifluoroacetate)]	–	–	–	100 to 130%	> 130%
N#Cc1cc(Cl)cc2c1C[C@H](N1CCNCC1)[C@H]2Oc1ccc(S(=O)(=O)NC2CCN(C(=O)CCCNC(=O)NCCCCNC(=O)NCCCC(=O)N3CCC(NS(=O)(=O)c4ccc(O[C@H]5c6cc(Cl)cc(C#N)c6C[C@@H]5N5CCNCC5)cc4)CC3)CC2)cc1 [Example 115]	–	–	–	100 to 130%	100 to 130%
N#Cc1cc(Cl)cc2c1C[C@H](N1CCCNCC1)[C@H]2Oc1ccc(S(=O)(=O)N[C@H]2CCN(CCOCCNC(=O)NCCCCNC(=O)NCCOCCN3CC[C@H](NS(=O)(=O)c4ccc(O[C@H]5c6cc(Cl)cc(C#N)c6C[C@@H]5N5CCCNCC5)cc4)C3)C2)cc1 [Example 126, 4-([(1S,2S)-6-Chloro-4-cyano-2-(1,4-diazepan-1-yl)-2,3-dihydro-1H-inden-1-yl]oxy)-N—[(S)-1-(20-[(S)-3-([4-([(1S,2S)-6-chloro-4-cyano-2-(1,4-diazepan-1-yl)-2,3-dihydro-1H-inden-1-yl]oxy)phenyl]sulfonamido)pyrrolidin-1-yl]-7,14-dioxo-3,18-dioxa-6,8,13,15-tetraazaicosyl)pyrrolidin-3-yl]benzenesulfonamide]	–	–	–	100 to 130%	100 to 130%

Reference: patent US11242337B2, “Compounds useful for treating gastrointestinal tract disorders” (Ardelyx, Inc., priority 2017, dated 2022)
